What all share (assay): DTP human tumour cell line panel, 48 h
Test [1] has as its system CAKI-1 renal.
Test [2] deals with HCC-2998 colon.
Test [3] has as its system HCT-116 colon.
In test [4] the test system is IGROV1 ovarian.
Test [5] concerns MDA-MB-231 breast.
Test [6] has as its system NCI-H226 lung.
Test [7] deals with NCI/ADR-RES ovarian.
Test [8] deals with OVCAR-8 ovarian.
Test [9] concerns SK-OV-3 ovarian.
Test [10] relates to U251 CNS.

In PubChem BioAssay (NCI) one finds GI50 and TGI data, which are given here for seven molecules.

Molecules are shown by their SMILES.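 Assay format: 96-well plates, 48-hour exposure. Here, GI50 denotes the concentration required for 50% inhibition of growth. TGI is the concentration that stops growth completely.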 Where only a bound is given, the exact number is not on record here.

As usually defined, the GI50 is the concentration giving 50% growth inhibition. By TGI is commonly meant the concentration giving total growth inhibition. Low readings indicate more potent growth arrest, high ones less potent growth arrest. For `Cc1nc2cnc3cc(F)c(-c4ccc(Oc5ncccn5)cc4Cl)cc3c2n1[C@H]1CCN(C(=O)CO)C[C@@H]1F`, the GI50 is 0.558 µM in [1]; 0.261 µM in [2]; 0.255 µM in [3]; 0.936 µM in test [4]; 0.101 µM in test [5]; 5.18 µM in test [6]. For the same molecule, the GI50 in test [7] is 8.38 µM; in test [8] it was 7.35 µM; in test [9], 3.93 µM; in test [10] it was 5.91 µM. The TGI is 16.4 µM in test [1]; 15.3 µM in [2]; 15.4 µM in [3]; greater than 100 µM in test [4]; 5.83 µM in test [5]; 29.8 µM in [6]. Also, the TGI in test [7] is 49 µM; in test [8], greater than 100 µM; in test [9] it was greater than 100 µM; in [10], greater than 100 µM.

Take `C[C@]12CC[C@@H]3c4ccc(O)cc4CC[C@H]3[C@@H]1CC[C@@H]2NS(=O)(=O)c1cccc(C(F)(F)F)c1`: the GI50 in [1] is 3.23 µM; in test [2], 4.58 µM; in test [3] it was 2.61 µM; in [4] it was 5.19 µM; in [5] it was 2.39 µM; in [6], 3.88 µM. Moreover, the GI50 in test [7] was 3.73 µM; in [8], 4.65 µM; in test [9], 4.78 µM; in test [10] it was 3.75 µM. Besides, the TGI in test [1] was found to be 11.8 µM; in test [2], 17.9 µM; in [3] it was 7.12 µM; in [4], 18 µM; in test [5] it was 6.77 µM; in test [6], 17.2 µM. Moreover, the total growth inhibition concentration (TGI) in [7] is 16.9 µM; in [8], 19.3 µM; in test [9], 15.3 µM; in test [10] it was 14.3 µM.

As for `CS(=O)(=O)c1ccc(-c2cnc(N)c(C(=O)Nc3ccccc3)n2)cc1`, the GI50 in test [1] was 4.96 µM; in [2], 3.9 µM; in [3], 11.4 µM; in [4], 5.17 µM; in [5] it was greater than 67.6 µM; in test [6], greater than 100 µM. The GI50 is 22.6 µM in test [7], greater than 45 µM in test [8], 6.85 µM in test [9] and 31.7 µM in [10]. Besides, the TGI in test [1] was greater than 55.8 µM; in [2] it was greater than 100 µM; in test [3], greater than 100 µM; in test [4] it was greater than 100 µM; in test [5], greater than 100 µM; in test [6], greater than 100 µM. Further, the TGI in [7], in test [8], in test [9] and in test [10] was greater than 100 µM in each case.

Consider `NC(=O)c1cc([N+](=O)[O-])c(Cl)c([N+](=O)[O-])c1`, for which the GI50 in test [1] was 2.59 µM; in test [2], 2.61 µM; in test [3], 1.91 µM; in [4], 3.01 µM; in test [5], 1.96 µM; in test [6] it was 1.68 µM. The GI50 was 3.67 µM in [7], 1.87 µM in [8], 16.9 µM in test [9] and 2.31 µM in test [10]. In addition, the TGI was found to be 7.12 µM in [1]; 7.46 µM in test [2]; 3.53 µM in test [3]; 7.9 µM in test [4]; 3.84 µM in test [5]; 3.22 µM in [6]. For the same molecule, the total growth inhibition concentration (TGI) was determined as 13.9 µM in test [7], 3.63 µM in test [8], 30.6 µM in test [9] and 5.61 µM in [10].

With `CN(C)c1ccc(-c2cc(-c3ccc(Nc4nc(Nc5ccccc5)nc(Nc5ccc(Cl)cc5)n4)cc3)nc(N)n2)cc1`, the GI50 in test [1] was 1.61 µM; in test [2], 13.7 µM; in test [3], 3.51 µM; in [4], 2.07 µM; in [5], 5.64 µM; in test [6] it was 12.1 µM. The GI50 in [7] is 9.23 µM; in test [8], 5.24 µM; in test [9], 18.8 µM; in [10], 5.06 µM. The TGI in test [1] worked out at 7.76 µM; in [2] it was 87.9 µM; in test [3] it was 15.2 µM; in test [4], 62 µM; in test [5], 23.4 µM; in test [6], 98.7 µM. In addition, the TGI in test [7] is greater than 100 µM; in [8] it was greater than 100 µM; in test [9], greater than 100 µM; in test [10] it was 25 µM.

For the molecule `N#Cc1cccc(C(=O)Nc2cccc(NC(=O)c3cccc(C#N)c3)c2)c1`, the GI50 was 6.95 µM in test [1]; greater than 100 µM in [2]; 78.1 µM in test [3]; greater than 100 µM in test [4]; 75.9 µM in [5]; 49.1 µM in [6]. Besides, the GI50 was 95.7 µM in test [7], 47.3 µM in test [8], greater than 100 µM in test [9] and 69.3 µM in test [10]. In addition, the TGI in test [1], in test [2], in test [3], in test [4], in test [5] and in test [6] was greater than 100 µM in each case. Further, the concentration for total growth inhibition (TGI) in [7], in [8], in [9] and in [10] was greater than 100 µM each time.

In the case of `O=C(CCCCCCSc1nc(-c2ccccc2)cc(-c2ccccc2)n1)NO`, the GI50 in [1] was 1.56 µM; in test [2], 3.07 µM; in test [3] it was 0.813 µM; in [4], 2.25 µM; in test [5] it was 2.54 µM; in test [6], 2.94 µM. Further, the GI50 in test [7] was 0.699 µM; in test [8] it was 1.79 µM; in [9] it was 2.42 µM; in [10], 1.51 µM. Besides, the TGI was 6.39 µM in [1]; 11.9 µM in [2]; 10.7 µM in test [3]; 10.3 µM in test [4]; 7.62 µM in [5]; 13.2 µM in [6]. Also, the TGI in test [7] is 6.15 µM; in [8] it was 16.9 µM; in [9] it was 8.84 µM; in test [10], 4.08 µM.
